Laboratory results from patent US20200277373A1, “ANTI-TREM2 ANTIBODIES AND METHODS OF USE THEREOF” (Denali Therapeutics Inc., priority 2017, published 2020).

Legend:
Type in all cases: cell-based
TREM2 = molecular target: T1, TREM2 (Homo sapiens, UniProt Q9NZC2); assay: Liposome stimulation pSyk AlphaLISA, HEK293 overexpressing TREM2 and DAP12; settings: liposomes 30% lipid/70% PC (KLA 10%/90%), fold change over HBSS
T1 construct: expressed in transfected cells
Experimental: (§1) Lipids were purchased from Avanti Polar Lipids (Alabaster, Ala.) or Echelon Biosciences (Salt Lake City, Utah). Each screened lipid was resuspended in chloroform and added at 30 mole percent composition to 70 mole percent phosphatidylcholine (PC; 1,2-dioleoyl-sn-glycero-3-phosphocholine, Avanti Polar Lipids). Kdo2-Lipid A was added at a 10 mole percent composition with 90 mole percent PC. Lipid mixes were dried under nitrogen gas and resuspended in HBSS at a concentration of 4 mg/mL. Mixes were vortexed or briefly sonicated until resuspended, then bath sonicated for 1-5 minutes. Liposomes were used for 1-2 weeks. 3 independent batches of liposomes were used in experiments.
(§2) HEK293 cell lines overexpressing TREM2 and DAP12, mutant TREM2-R47H and DAP12, or DAP12 alone were plated in 96-well PDL-coated plates at a density of 40,000 cells per well and cultured for 36-48 hours until 90-100% confluent.
(§3) Cell culture medium was removed and cells were washed once with 200ul HBSS. Liposomes were diluted in HBSS in concentrations ranging from 0.03125 mg/mL to 2 mg/mL, then 50 μl was added to wells in 2-3 technical replicates per plate. Each plate contained HBSS negative control wells, 100% PC liposome control, 5 μg/mL agonist anti-TREM2 positive control (Abnova; Taiwan; # MAB2056), and 5 μg/mL mouse IgG3 isotype control (R&D Systems; Minneapolis, Minn.; # MAB007). Stimuli were incubated with cells for 5 minutes at 37° C., 5% CO2, liposomes were removed, and plates were frozen at −80° C.
(§4) Cells were lysed for 30 minutes to 1 hour on ice in 50 ul/well Cell Lysis Buffer (Cell Signaling Technology; Danvers, Mass.; #9803) with 1 mM PMSF. AlphaLISA SureFire Ultra p-Syk Tyr525/526 assay kit (PerkinElmer, ALSU-PSYK-A10OK) was used to measure pSyk levels in lysate as per manufacturer protocol. 10 μl lysate was added to 384-well OptiPlates (PerkinElmer; #6007290) and an EnVision Multilabel Plate Reader (PerkinElmer) was used to measure AlphaLISA fluorescence.
(§5) PSyk AlphaLISA fluorescence was converted to a log 2 scale. Fluorescence values from liposomes and controls were each subtracted from average fluorescence values from HBSS stimulated wells on the same plate (log 2(liposome)−log 2(HBSSave)=log 2(signal)). The result was converted back to a standard scale to measure fold change (2^log 2(signal)=fold change). Technical replicate fold changes values were averaged to obtain the fold change over background listed (pSyk FOB). Graphs represent values from independent experiments or individual human donors. Results from the screen on the HEK293 overexpressing cell lines are shown in Table 9 below and in FIG. 8A-8B. HEK293 results showing specificity for TREM2 over DAP12 expressed alone can be used to extrapolate which lipid species are likely acting as TREM2 ligands on human macrophages.

[1] = system: primary human macrophages; assay: Liposome stimulation pSyk AlphaLISA, primary human macrophages; settings: liposomes 30% lipid/70% PC (KLA 10%/90%)
Experimental: as §1
10 mL human blood was obtained from Blood Centers of the Pacific. Monocytes were extracted using RosetteSep Human Monocyte Enrichment Cocktail ([…] Technologies Inc.; Vancouver, BC; #15068) as per manufacturer protocols. Density gradient was performed with Ficoll-Paque Premium (GE Healthcare Life Sciences; Pittsburgh, Pa.; #17-5442-02). Isolated monocytes were resuspended at ˜1-1.3 million cells/mL and cultured for 5-6 days in RPMI, 10% Hyclone Fetal Bovine Serum, and penicillin/streptomycin supplemented with 50 ng/mL human M-CSF (Gibco, # PHC9501) in T175 tissue culture treated flasks. M-CSF was replenished every 2-3 days. Cells were washed once with PBS, 15 mL fresh medium was added, and cells were harvested by scraping. Cells were cultured overnight at a density of 100,000 cells per well on tissue culture treated 96-well plates supplemented with 10-25 ng/mL M-CSF.
as §3, §4, §5

DAP12 alone = molecular target: T2, DAP12 alone (Homo sapiens, UniProt O43914); assay: Liposome stimulation pSyk AlphaLISA, HEK293 expressing DAP12 alone; settings: liposomes 30% lipid/70% PC (KLA 10%/90%), fold change over HBSS
T2 construct: expressed in transfected cells
Experimental: as §1, §2, §3, §4, §5

R47H TREM2 mutant = molecular target: T3, R47H TREM2 mutant (Homo sapiens, UniProt Q9NZC2, R47H); assay: Liposome stimulation pSyk AlphaLISA, HEK293 overexpressing TREM2-R47H and DAP12; settings: liposomes 30% lipid/70% PC (KLA 10%/90%), fold change over HBSS
T3 construct: expressed in transfected cells
Experimental: as §1, §2, §3, §4, §5

T1 sequence (Q9NZC2 19-230): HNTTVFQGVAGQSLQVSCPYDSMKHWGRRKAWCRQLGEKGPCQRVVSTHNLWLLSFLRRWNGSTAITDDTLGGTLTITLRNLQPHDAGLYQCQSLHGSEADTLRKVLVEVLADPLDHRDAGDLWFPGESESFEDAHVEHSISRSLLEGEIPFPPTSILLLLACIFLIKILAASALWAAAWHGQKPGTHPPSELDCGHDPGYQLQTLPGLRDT
T1 sequence (O43914 22-113 partner): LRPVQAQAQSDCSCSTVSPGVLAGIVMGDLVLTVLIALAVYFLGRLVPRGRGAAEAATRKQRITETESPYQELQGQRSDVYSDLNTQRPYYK
T2 sequence (O43914 22-113): as the sequence (O43914 22-113 partner) above
T3 sequence (Q9NZC2 19-230 R47H): as the sequence (Q9NZC2 19-230) above, with R29H counted along it
T3 sequence (O43914 22-113 partner): as the sequence (O43914 22-113 partner) above

| Compound | Human TREM2 (pSyk FOB) (TREM2) [FOB] | pSyk FOB [1] [FOB] | DAP12 alone (pSyk FOB) (DAP12 alone) [FOB] | R47H TREM2 mutant (pSyk FOB) (R47H TREM2 mutant) [FOB] |
| --- | --- | --- | --- | --- |
| Lysophosphatidylserine [Lysophosphatidylserine (LPS)] | 3.77 | 1.78 | 1.39 | 3.88 |
| Bis(monoacylglycero)phosphate [Bis(monoacylglycero)phosphate (BMP)] | 4.85 | 2.19 | 1.42 | 3.04 |
| Oxidized phosphatidylcholine [Oxidized phosphatidylcholine (oxPC)] | 0.81 | 1.25 | 1.26 | 0.68 |
| Cholesteryl ester [Cholesteryl ester (CE)] | 4.24 | 1.62 | 1.14 | 10.90 |
| CC(C)CCC[C@@H](C)[C@H]1CC[C@H]2[C@@H]3CC=C4C[C@@H](O)CC[C@]4(C)[C@H]3CC[C@]12C [Free cholesterol (FC), Free cholesterol] | 1.04 | 1.44 | 1.14 | 2.24 |
| C[C@@H](CO)CCC[C@@H](C)[C@H]1CC[C@H]2[C@@H]3CC=C4C[C@@H](O)CC[C@]4(C)[C@H]3CC[C@]12C [27-hydroxycholesterol (27OHC), 27-hydroxycholesterol] | 5.26 | 1.72 | 1.36 | 9.25 |
| Lysophosphatidylethanolamine [LysophosphatidyLethanolamine (LPE)] | 4.16 | 2.03 | 1.28 | 3.58 |
| Galactosylceramide [Galactosylceramide (GalCer)] | 3.45 | 1.98 | 1.16 | 4.65 |
| Dihydrosphingomyelin [Dihydrosphingomyelin (DhSM)] | 1.59 | 0.96 | 1.40 | 1.93 |
| Phosphatidylglycerol [Phosphatidylglycerol (PG) or DSPG] | 2.25 | 1.85 | 1.40 | 3.77 |
| Cardiolipin [Cardiolipin (CL)] | 3.79 | 2.50 | 1.26 | 3.31 |
| Lysophosphatidylglycerol [Lysophosphatidylglycerol (LPG)] | 4.83 | 1.64 | 1.28 | 3.44 |
| Lysophosphatidic acid [Lysophosphatidic acid (LPA)] | 3.69 | 1.82 | 1.17 | 3.62 |
| Palmitic-acid-9-hydroxy-stearic-acid | 5.87 | 3.94 | 1.27 | 7.31 |
| Ceramide-1-phosphate [Ceramide-1-phosphate (C1P)] | 3.89 | 2.28 | 1.16 | 4.00 |
| CC(C)CCC[C@@H](C)[C@H]1CC[C@H]2[C@@H]3C(=O)C=C4C[C@@H](O)CC[C@]4(C)[C@H]3CC[C@]12C [7-ketocholesterol (7-KC), 7-ketocholesterol] | 1.10 | 1.18 | 1.36 | 3.42 |
| Phosphatidylethanolamine [Phosphatidylethanolamine (PE) or DSPE] | 1.49 | 1.53 | 1.51 | 2.49 |
| Sulfatide | 5.02 | 1.75 | 1.21 | 6.34 |
| Lactosylceramide [Lactosylceramide (LacCer)] | 1.89 | 1.29 | 1.27 | 2.06 |
| Ganglioside GM3 | 5.82 | 1.17 | 1.14 | 6.05 |
| Phosphatidylethanol [Phosphatidylethanol (PEtOH)] | 3.00 | 1.61 | 1.57 | 4.83 |
| N-Acyl-Serine [N-Acyl-Serine (NSer)] | 2.59 | 1.66 | 1.39 | 3.76 |
| CCCCCCCCCCCCC/C=C/[C@@H](O)[C@@H](N)COP(=O)([O-])OCC[N+](C)(C)C [Lysosphingomyelin (LSM), Lysosphingomyelin] | 0.67 | 1.26 | 1.03 | 0.85 |
| Ether phosphatidylcholine [Ether phosphatidylcholine (PCe)] | 2.94 | 1.29 | 1.33 | 3.97 |
| Sphingomyelin [Sphingomyelin (SM)] | 1.74 | 1.02 | 1.40 | 2.09 |
